The test system of assay [1] is GR-GFP chimera. In words: Nuclear Transfer Induction assay (NTI), monourethane ligands, HeLa cells. The format is cell-based. The following applies: 1 hr. As to the method: Conditions: HeLa cells are transiently transfected by CaPO4 with an expression vector encoding a GR-GFP chimera (5 μg in transfection cocktail, 4 cm diameter dishes, DMEM with 3% FCS). After 24 hour expression, ligand is added for 1 hr and cells are fixed with formaldehyde (5 min 4° C.) and inspected by fluorescence microscopy. Fluorescent cells are counted and divided into different classes according to ‘cytoplasmic’ (C) versus ‘nuclear’ (N) localisation of fluorescence.
First column: “Conditions”: Name of compounds added (marked at top: ‘//ligand’), and their concentration (in parentheses) and assay number (01 through 21).
Values are given as percentage of cells displaying the corresponding localisatidn, within each tested condition the sum is 100%.

Assay [2] relates to GR-GFP chimera. In words: Nuclear Transfer Induction assay (NTI), diurethane ligands, CV-1 cells. The class given is cell-based. The conditions noted are these: 4 hr. The protocol: Conditions: CV-1 cells are transiently transfected with DOTAP (Boehringer-Mannheim) with an expression vector encoding a GR-GFP chimera (see 8.1). After 36 hours expression, ligand is added for 4 hr and cells are fixed and counted as given in 8.1.

For the compound `COC(=O)CCNC(=O)OCC(=O)[C@@]1(O)CCC2C3CCC4=CC(=O)CCC4(C)C3C(O)CC21C` (some centres unmarked) [CL-C3-COOCH3, 2-carboxymethyl-ethyl-1-carboxamicacid-cortisol-21-ester], in assay [1] (ligand 1.10-6M), the “C < N, percentage of cells” value is 55%; the “C << N, percentage of cells” value was 42%; the “C = N, percentage of cells” value amounted to 2%; the “C > N, percentage of cells” value is 1%. In assay [1] (ligand 1.10-6M), the “C >> N, percentage of cells” value came to 0%. In assay [1] (ligand 1.10-7M), the “C < N, percentage of cells” value stood at 50%; the “C << N, percentage of cells” value was determined as 18%; the “C = N, percentage of cells” value worked out at 21%; the “C > N, percentage of cells” value worked out at 1%. Besides, the “C >> N, percentage of cells” value in assay [1] (ligand 1.10-7M) worked out at 0%.
Regarding `CC12CCC(=O)C=C1CCC1C2C(O)CC2(C)C1CC[C@]2(O)C(=O)COC(=O)NCCC(=O)O` (some centres unmarked) [CL-C3-COOH, 2-carboxy-ethyl-1-carboxamicacid-cortisol-21-ester], in assay [1] (ligand 1.10-6M), the “C < N, percentage of cells” value is given as 13%; the “C << N, percentage of cells” value was found to be 0%; the “C = N, percentage of cells” value came to 85%; the “C > N, percentage of cells” value came to 2%. Also, the “C >> N, percentage of cells” value in assay [1] (ligand 1.10-6M) came out at 0%. For the same compound, in assay [1] (ligand 1.10-7M), the “C < N, percentage of cells” value amounted to 2%; the “C << N, percentage of cells” value amounted to 0%; the “C = N, percentage of cells” value is 43%; the “C > N, percentage of cells” value worked out at 55%. In assay [1] (ligand 1.10-7M), the “C >> N, percentage of cells” value stood at 0%.
`COC(=O)CCCCCCCCCCNC(=O)OCC(=O)[C@@]1(O)CCC2C3CCC4=CC(=O)CCC4(C)C3C(O)CC21C` (some centres unmarked) [CL-C11-COOCH3, 10-carboxymethyl-n-decy-1-carboxamicacid-cortisol-21-ester]: in assay [1] (ligand 1.10-6M), the “C < N, percentage of cells” value was 60%; the “C << N, percentage of cells” value was 13%; the “C = N, percentage of cells” value is recorded as 24%; the “C > N, percentage of cells” value was 3%. Moreover, the “C >> N, percentage of cells” value in assay [1] (ligand 1.10-6M) was 0%. In addition, in assay [1] (ligand 1.10-7M), the “C < N, percentage of cells” value is 20%; the “C << N, percentage of cells” value is listed as 0%; the “C = N, percentage of cells” value came to 55%; the “C > N, percentage of cells” value worked out at 20%. For the same compound, the “C >> N, percentage of cells” value in assay [1] (ligand 1.10-7M) came to 5%.
In the case of `COC(=O)CCNC(=O)OCC(=O)[C@@]1(O)[C@H](C)CC2C3CCC4=CC(=O)C=CC4(C)[C@@]3(F)C(O)CC21C` (some centres unmarked) [DEX-C3-COOCH3, 2-carboxymethyl-ethyl-1-carboxamicacid-dexamethasone-21-ester], in assay [1] (ligand 1.10-7M), the “C < N, percentage of cells” value was 25%; the “C << N, percentage of cells” value is listed as 75%; the “C = N, percentage of cells” value is given as 0%; the “C > N, percentage of cells” value stood at 0%. In addition, the “C >> N, percentage of cells” value in assay [1] (ligand 1.10-7M) amounted to 0%. Also, in assay [1] (ligand 1.10-8M), the “C < N, percentage of cells” value was found to be 22%; the “C << N, percentage of cells” value stood at 78%; the “C = N, percentage of cells” value is on record as 0%; the “C > N, percentage of cells” value is 0%. Moreover, in assay [1] (ligand 1.10-8M), the “C >> N, percentage of cells” value amounted to 0%.
In the case of `CC1CC2C3CCC4=CC(=O)C=CC4(C)C3(F)C(O)CC2(C)C1(O)C(=O)COC(=O)NCCOC(=O)NCCCNCCCCNCCCN` (centres unmarked) [DEX-C4-Sn], in assay [2] (ligand 5.10-6M), the “C < N, percentage of cells” value is 27.6%; the “C << N, percentage of cells” value turned out to be 69.5%; the “C = N, percentage of cells” value was found to be 2.9%; the “C > N, percentage of cells” value turned out to be 0%. Besides, the “C >> N, percentage of cells” value in assay [2] (ligand 5.10-6M) is 0%. Besides, in assay [2] (ligand 5.10-7M), the “C < N, percentage of cells” value turned out to be 4.6%; the “C << N, percentage of cells” value is recorded as 0.6%; the “C = N, percentage of cells” value is 67.4%; the “C > N, percentage of cells” value is given as 15.4%. Moreover, the “C >> N, percentage of cells” value in assay [2] (ligand 5.10-7M) is on record as 12%. For the same compound, in assay [2] (ligand 5.10-8M), the “C < N, percentage of cells” value came out at 1.1%; the “C << N, percentage of cells” value came to 0%; the “C = N, percentage of cells” value is on record as 43.3%; the “C > N, percentage of cells” value is 35.8%. The “C >> N, percentage of cells” value in assay [2] (ligand 5.10-8M) worked out at 19.8%. For the same compound, in assay [2] (ligand 5.10-9M), the “C < N, percentage of cells” value is 0%; the “C << N, percentage of cells” value is on record as 0%; the “C = N, percentage of cells” value is listed as 28.5%; the “C > N, percentage of cells” value is given as 43.8%. Further, in assay [2] (ligand 5.10-9M), the “C >> N, percentage of cells” value is 27.7%.
As for `Cc1oc2c(C)c3oc(=O)cc(C)c3cc2c1CNC(=O)OCCCCCCNC(=O)OCC(=O)[C@@]1(O)[C@H](C)CC2C3CCC4=CC(=O)C=CC4(C)[C@@]3(F)C(O)CC21C` (some centres unmarked) [DEX-C6-Pso], in assay [2] (ligand 5.10-6M), the “C < N, percentage of cells” value worked out at 10%; the “C << N, percentage of cells” value turned out to be 90%; the “C = N, percentage of cells” value was 0%; the “C > N, percentage of cells” value is on record as 0%. Moreover, the “C >> N, percentage of cells” value in assay [2] (ligand 5.10-6M) stood at 0%. In assay [2] (ligand 5.10-7M), the “C < N, percentage of cells” value stood at 6%; the “C << N, percentage of cells” value was 94%; the “C = N, percentage of cells” value was 0%; the “C > N, percentage of cells” value is recorded as 0%. Moreover, the “C >> N, percentage of cells” value in assay [2] (ligand 5.10-7M) came to 0%. Besides, in assay [2] (ligand 5.10-8M), the “C < N, percentage of cells” value was found to be 29.4%; the “C << N, percentage of cells” value was determined as 60.8%; the “C = N, percentage of cells” value was 9.8%; the “C > N, percentage of cells” value worked out at 0%. The “C >> N, percentage of cells” value in assay [2] (ligand 5.10-8M) is 0%. In assay [2] (ligand 5.10-9M), the “C < N, percentage of cells” value is recorded as 38.3%; the “C << N, percentage of cells” value came to 22.6%; the “C = N, percentage of cells” value is reported as 35.7%; the “C > N, percentage of cells” value is 3.5%. The “C >> N, percentage of cells” value in assay [2] (ligand 5.10-9M) is listed as 0%.
As for `COC(=O)CCCCCCCCCCNC(=O)OCC(=O)[C@@]1(O)[C@H](C)CC2C3CCC4=CC(=O)C=CC4(C)[C@@]3(F)C(O)CC21C` (some centres unmarked) [DEX-C11-COOCH3, 10-carboxymethyl-n-decyl-1-carboxamicacid-dexamethasone-21-ester], in assay [1] (ligand 1.10-6M), the “C < N, percentage of cells” value was determined as 50%; the “C << N, percentage of cells” value is on record as 45%; the “C = N, percentage of cells” value was 5%; the “C > N, percentage of cells” value is 0%. In assay [1] (ligand 1.10-6M), the “C >> N, percentage of cells” value worked out at 0%. In assay [1] (ligand 1.10-7M), the “C < N, percentage of cells” value came to 61%; the “C << N, percentage of cells” value was 7%; the “C = N, percentage of cells” value stood at 29%; the “C > N, percentage of cells” value is on record as 3%. In assay [1] (ligand 1.10-7M), the “C >> N, percentage of cells” value was 0%.
Consider `Cc1oc2c(C)c3oc(=O)cc(C)c3cc2c1CNC(=O)OCCCCCCCCCCCNC(=O)OCC(=O)[C@@]1(O)[C@H](C)CC2C3CCC4=CC(=O)C=CC4(C)[C@@]3(F)C(O)CC21C` (some centres unmarked) [DEX-C11-Pso], for which, in assay [2] (ligand 5.10-6M), the “C < N, percentage of cells” value is given as 53.1%; the “C << N, percentage of cells” value came to 45%; the “C = N, percentage of cells” value came to 1.9%; the “C > N, percentage of cells” value turned out to be 0%. In addition, the “C >> N, percentage of cells” value in assay [2] (ligand 5.10-6M) was 0%. For the same compound, in assay [2] (ligand 5.10-7M), the “C < N, percentage of cells” value is recorded as 14.8%; the “C << N, percentage of cells” value stood at 0%; the “C = N, percentage of cells” value is 58.3%; the “C > N, percentage of cells” value is given as 25.7%. The “C >> N, percentage of cells” value in assay [2] (ligand 5.10-7M) is recorded as 1.3%. For the same compound, in assay [2] (ligand 5.10-8M), the “C < N, percentage of cells” value turned out to be 1.9%; the “C << N, percentage of cells” value came to 0%; the “C = N, percentage of cells” value stood at 52.9%; the “C > N, percentage of cells” value is 37.1%. In addition, in assay [2] (ligand 5.10-8M), the “C >> N, percentage of cells” value is listed as 8.1%. Also, in assay [2] (ligand 5.10-9M), the “C < N, percentage of cells” value came out at 3.6%; the “C << N, percentage of cells” value is 0%; the “C = N, percentage of cells” value stood at 34.2%; the “C > N, percentage of cells” value was determined as 52.9%. In addition, the “C >> N, percentage of cells” value in assay [2] (ligand 5.10-9M) is listed as 9.4%.
